Measurements as given in US20240390377A1, “COMPOSITION FOR THE PREVENTION OR TREATMENT OF NEURODEGENERATIVE OR MOTOR NEURON DISEASES COMPRISING HALOFUGINONE AS AN ACTIVE INGREDIENT” (CURAMYS CO., LTD., priority 2022, published 2024).

Tests used:
[1] = tested on: G93A mutant SOD1 transgenic mice; assay: ALS animal model disease progression, survival and motor function (rotarod) analysis; type: in vivo, mouse
Method: Specifically, all animal experiments were conducted according to the guidelines of the Animal Care Committee of Seoul National University Animal Hospital (IACUC, approval number SNU-200220-1-2). Transgenic mice expressing the human G93A mutant SOD1 gene (B6SJL-Tg(SOD1-G93A) 1 Gur/J) as an ALS animal model were purchased from Jackson Laboratory (Bar Harbor, ME, USA). Male transgenic ALS mice expressing mtSOD1(G93A) H1 strain (Jackson Laboratories, Bar Harbor, ME, USA) were crossed with female mice (B6/SJLF1). The mice were housed under standard conditions with a constant temperature of 22±1° C., relative humidity of 40%, and a 12-hour light-dark cycle, with ad libitum access to food and water. Genotypes were confirmed by polymerase chain reaction (PCR) using primers shown in [Table 1] below, and the number of transgene copies was confirmed. Next, G93A mutant SOD1 transgenic mice were divided into three stages: 60 days old (asymptomatic), 90 days old (early symptom), and 120 days old (late symptom) depending on the time point. A total of 96 mice were used in the experiment. As a control group, non-transgenic mice were used.
(§1) As a control group, non-transgenic mice were injected intraperitoneally (i.p.) with vehicle (DMSO) in the same manner for the same period of time.
Specifically, the clinical condition and body weight of the mice in Example 6 were assessed three times a week starting from day 83 post-birth. Disease onset was defined as tremor of the limbs when the mouse's tail was suspended in the air, reported to be clinically associated with upper motor neuron system [S. Nagano, Y. Fujii, T. Yamamoto, M. Taniyama, K. Fukada, T. Yanagihara, et al. The efficacy of trientine or ascorbate alone compared to that of the combined treatment with these two agents in familial amyotrophic lateral sclerosis model mice Exp Neurol, 179 (2003), pp. 176-180]. The endpoint age was determined as the inability of the animal to right itself within 30 seconds after being placed on a flat surface on its side. At this point, the mouse was considered deceased [C. Zheng, I. Nennesmo, B. Fadeel, J. I. Henter Vascular endothelial growth factor prolongs survival in a transgenic mouse model of ALS Ann Neurol, 56 (2004), pp. 564-567]. The motor function of mice was assessed using a rotarod apparatus (JD-A-07M, JEUNG DO BIO & PLANT CO., LTD). Mice were trained for one week prior to recording. The mice were placed on a rotarod that started at a speed of 4 rpm and accelerated up to 40 rpm over 300 seconds, increasing by 1 rpm approximately every 8.3 seconds. The rotarod test was measured on average three times per measurement, three times per week from 83 days of age, until it was not possible to stay in rotarod for more than 10 seconds three consecutive times.
All data were expressed as the mean and the standard error of the mean (SEM) based on at least three independent experiments and as the ratio of control values. The significance of differences between groups was analyzed by Student's t-test or one-way ANOVA followed by Tukey's post host comparison. A p-value of <0.05 was considered statistically significant. The cumulative probability of symptom onset, rotarod failure, and disease endpoint was analyzed using a Kaplan Meier curve. All analyses were performed using GraphPad Prism. […]

[2] = tested on: G93A mutant SOD1 transgenic mice; assay: Western blot analysis of knee joint tissue in ALS animal model; type: in vivo, mouse; conditions: 120 days old; compared to DMSO non-TG mice
Method: as §1
Specifically, the lumbar spinal cord or knee joint of the mouse of Example 6 was separated and immediately frozen at −80° C. Each lumbar spinal cord or knee joint was then homogenized and chemically treated to obtain cells. The chemically treated cells, the C2C12 cells of Example 1 or the fibroblasts of Example 5 were dissolved in a RIPA buffer (Thermo, MA, USA) with a protease inhibitor and a phosphatase inhibitor (Roche, IN, USA) and incubated on ice for 30 minutes. After centrifugation of the lysate at 13,000 rpm at 4° C. for 20 min, insoluble substances were removed. Protein concentrations were measured by BCA analysis (Pierce Biotechnology). Equal volumes of cell lysate were loaded onto SDS-PAGE gels for electrophoresis, and transferred onto nitrocellulose membranes (Amersham Protran 0.2 um NC, Amersham Pharmacia Biotech, Piscataway, NJ, USA). The membranes were then blocked with 5% (w/v) skimmilk in 1×TBST for 1 h at room temperature. After blocking, anti-RB-actin antibody (1:5000; Santa Cruz, cat #sc47778), anti-Smad2 antibody (1:1000; Cell Signaling, cat #5339), anti-p-Smad2 antibody (1:1000; Cell Signaling, cat #3108), anti-TGF-β1 antibody (1:1000; Santa Cruz, cat #sc130348), anti-α-SMA antibody (1:10000; abcam cat #ab7817), anti-MyoD antibody (1:1000; cat #sc377460), anti-collagen|antibody (1:1000; abcam cat #ab21286), anti-cleaved caspase-3 antibody (1:1000; Cell Signaling, cat #9661), anti-bax antibody (1:500; Santa Cruz, cat #sc493), anti-bcl2 antibody (1:1000; Novus Biologics, cat #NB100-56098), anti-ChAT antibody (1:1000; Millipore, cat #AB144) were treated and incubated overnight at 4° C. Subsequently, membranes were washed several times with 1×TBST and incubated with horseradish peroxidase-conjugated secondary antibodies (anti-mouse, rabbit or goat, 1:5000; GE Healthcare) in blocking buffer for 1 h at room temperature (RT). The membranes were then washed, briefly incubated with the SuperSignal West Pico Plus Chemical Substructure (Pierce Biotechnology) according to the manufacturer's procedure, and quantified with an image analyzer (Amersham Pharmacia Biotech, Piscataway, NJ, USA). β-actin was used as an internal control group. The concentration measurement of protein intensity was quantified using Image J (National Institutes of Health).
Specifically, halofuginone was administered to G93A mutant SOD1 mice in the same manner as described in Example 6, and ROM measurement of the knee joint was performed in the same manner as described in Example 10 (FIG. 8a). In addition, Western blot analysis was performed in the same manner as the method described in Example 12 using knee joint tissue to confirm p-Smad2, Smad2, TGF-β1, α-SMA, MyoD, and collagen I protein expression (FIG. 8b).

[3] = 250 μg/kg i.p. three times a week from 10 weeks of age, Hal TG vs DMSO TG group (FIG. 6a)

In the case of `O=C(C[C@H]1NCCC[C@@H]1O)Cn1cnc2cc(Br)c(Cl)cc2c1=O` (racemic) [halofuginone], the body weight [1, 3] is reported as “no significant difference”, the “time in the rotarod” value [1, 3] is reported as “significantly longer” and the onset of symptoms ([1]; 250 μg/kg i.p. three times a week, mean±SD, DMSO TG group 94.2±5.7) is reported as 113±3.6. For the same molecule, the “age of reaching rotarod failure” value ([1]; 250 μg/kg i.p. three times a week, mean±SD, DMSO TG group 116.5±3.1, p<0.001) was 124.3±3.5, the endpoint age ([1]; 250 μg/kg i.p. three times a week, mean±SD, DMSO TG group 129.3±7.6) was 141.8±9.8 and the “Col-1 expression level in knee joint tissue” value [2] was “rather reduced”. The “MyoD expression level in knee joint tissue” value [2] was “preserved similarly”, the “TGF-β1 expression level in knee joint tissue” value [2] was “preserved similarly” and the “p-Smad2/Smad2 ratio in knee joint tissue” value [2] was “preserved similarly”. The “α-SMA expression level in knee joint tissue” value [2] was “preserved similarly”.
